This is an account of results in patent US11788147B2, “Markers of triple-negative breast cancer and uses thereof” (Vanderbilt University, priority 2011, dated 2023).

Experiment [1] concerns AR-expressing TNBC cell lines. Briefly: Viability of AR-expressing TNBC cell lines, PI3K inhibitors alone or with bicalutamide (2-D). Type of experiment: cell-based, human. The conditions noted are these: alone, 72 h. The protocol: All cell lines were maintained in culture as previously described (JCI ref). Breast cancer cell lines and HMECs were seeded (3,000-10,000 cells) in quadruplicate wells in 96-well plates. […] Viability was determined from measuring fluorescent intensity after metabolic reduction of Alamar Blue in the presence/absence of drug after 72 hours. Viability assays were performed in triplicate and replicates were normalized to untreated wells.

The test system of experiment [2] is p-AKT, p-S6 and AR in AR-expressing TNBC cell lines. Briefly: Immunoblot analysis of the PI3K/mTOR pathway and AR. Type of experiment: cell-based, human. The conditions noted are these: for activated AKT: 24 h or 48 h. Here is the method: Immunoblot analysis was performed on cell lystates from untreated cells or cells treated alone or in combination with CDX, GDC-0941 and GDC-0980 to evaluate attenuation of the PI3K/mTOR pathway. […] Cells were trypsinized, lysed and relative protein expression was determined by Western blot as previously described (JCI reference) with the following antibodies; the AR polyclonal antibody, SC-N20 (Santa Cruz Biotechnology), pS[…]/236 (Cell Signaling #4856), S6 (Cell Signaling #2317), pAKT-5473 (Cell Signaling #9271), AKT (Cell Signaling #9272), PARP (Cell Signaling #9542) and GAPDH (Millipore).
Background: In western blotting, separated proteins are transferred to a membrane and probed.

For experiment [3], the system named is activated caspase 3/7 in AR-positive TNBC cell lines. Briefly: Caspase 3/7 activity (Caspase-Glo). The experiment is classed as cell-based, human. The settings on record: 48 h; ADR 3 μM, bicalutamide 50 μM, GDC-0941 3 μM, GDC-0980 1 μM. The protocol: Cell lines were seeded in triplicate in 96-well plates. Media was removed and replaced with media containing vehicle (control) or indicated drugs. After 48 hrs, apoptosis was determined by measuring luciferase from activated caspase 3/7 upon addition of Caspase-Glo reagent (Promega, Madison, WI). Relative levels of caspase activity were normalized to viable cell number determined by metabolic reduction of Alamar blue.

The test system of another experiment is MDA-MB-453 cells. The experiment is described as follows: Sub-G1 (sub 2N DNA) fraction by FACs analysis. Type of experiment: cell-based, human. The settings on record: 48 h, alone. Here is the method:
FIGS. 31A-31B: Combined inhibition of AR and PI3K increases apoptotic cell death in AR+TNBC cell lines. (31A) Bar graphs display relative caspase 3/7 activity (RLU) normalized to viable cell number 48 hrs after treatment with vehicle, positive control (3 μM adriamycin, ADR), 50 μM bicalutamide (CDX) and 3 μM GDC-0941 or 1 μM GDC-0980 alone or in combination with CDX. (31B) Histograms show representative cell cycle analysis of MDA-MB-453 cells treated with similar conditions as above. Indicated percentages represent the fraction of hypodiploid DNA (sub-G1), indicative of late stage apoptotic DNA fragmentation.
In addition to caspase activation, the percentage of sub 2N DNA (sub-G1)-containing cells (indicative of late stage apoptotic DNA fragmentation) was quantitated by FACs analysis. […] Therefore, the decreased viability of AR-positive TNBC cell lines treated with a combination of AR and PI3K inhibitors can be, in part, attributed to apoptosis.

For experiment [4], the system named is CAL-148, MFM-223 and MDA-MB-453 cells. The experiment is described as follows: 3-D forced suspension viability assay. Type of experiment: cell-based, human. The conditions noted are these: increasing doses, alone, 72 h; to a lesser degree than in 2-D. The protocol:
CAL-148, MFM-223 and MDA-MB-453 cells were plated (10,000 cells/well) in quadruplicate into 96-well plates coated with 0.9% agarose diluted in corresponding media. Following 5 d of growth, cells were then treated with increasing half-log concentrations of GDC-0941 (10-3000 nM), GDC0980 (1 nM −300 nM), BKM120 (10 nM-3000 nM) and NVP-BEZ235 (1 nM-300 nM) alone or in combination with 25 μM bicalutamide (CDX) for an additional 72 h, upon which cells were imaged and viability determined by Alamar blue.

The subject of experiment [5] is CAL-148 and MDA-MB-453 xenograft tumors. The experiment is described as follows: Xenograft tumor studies (Example 2). Type of experiment: in vivo, mice. The settings on record: single agent alone; bicalutamide 100 mg/kg/d, GDC0980 7.5 mg/kg/d, NVP-BEZ235 50 mg/kg/d p.o. Here is the method:
Five-week-old female athymic nude-Foxnlnu mice (Harlan Sprague-Dawley) were injected (s.c.) with either ˜4×10^6 (CAL-148) or ˜10×10^6 (MDA-MB-453) cells suspended in media (200 μL) into each flank using a 22-gauge needle. Once tumors reached a volume of 25-50 mm^3, mice were randomly allocated to treatment or vehicle arms. Treatments included bicalutamide p.o. (100 mg/kg/d), GDC0980 p.o. (7.5 mg/kg/d) in 5% DMSO, 0.5% carboxymethyl cellulose (MCT) or NVP-BEZ235 p.o. (50 mg/kg/d) in 0.5% MCT or the combination of bicalutamide and either GDC-0980 or NVP-BEZ235 according to the above concentrations. Tumor diameters were serially measured at the indicated times with digital calipers and tumor volumes were calculated as width^2×length/2.

Experiment [6] concerns mesenchymal-like (M and MSL) TNBC cell lines. Briefly: Cell proliferation/viability assay (alamarBlue) and IC50 determination. The conditions noted are these: Homo sapiens; mesenchymal-like cell lines, 72 hours. The experiment is classed as cell-based, human. The protocol:
(§1) Cell proliferation/viability assays and IC50 determinations. All cell lines and culture conditions used can be found in Supplemental Methods (Table 5). Short tandem repeat (STR) DNA fingerprinting analysis was performed on all TNBC cell lines used in this study (Cell Line Genetics). […] Breast cancer cell lines and HMECs were seeded (3,000-10,000 cells) in quadruplicate wells in 96-well plates. […] Viability was determined from measuring fluorescent intensity after metabolic reduction of alamarBlue in the presence/absence of the drug after 72 hours. Viability assays were performed in triplicate, and replicates were normalized to untreated wells. […] For analysis of cell-line drug assays, data generated from the different cell lines representative of TNBC subtypes were compared using the nonparametric Mann-Whitney U test. All analyses and graphic representations were performed using Prism software (version 4.0c; GraphPad Software), and values are represented as the mean±SEM.
Background: Resazurin is reduced to fluorescent resorufin, in cell work by metabolically active cells.

In another experiment the test system is LAR TNBC cell lines. The description is as above. The experiment is classed as cell-based, human. The conditions noted are these: 72 hours. The protocol:
(§2) Cell proliferation/viability assays and IC50 determinations. All cell lines and culture conditions used can be found in Supplemental Methods (Table 5). Short tandem repeat (STR) DNA fingerprinting analysis was performed on all TNBC cell lines used in this study (Cell Line Genetics). […] Breast cancer cell lines and HMECs were seeded (3,000-10,000 cells) in quadruplicate wells in 96-well plates. […] Medium was then replaced with either fresh medium (control) or medium containing half-log serial dilutions of the following drugs: 0.3-30 μM olaparib (ChemieTek), 0.3-30 μM veliparib (ChemieTek), 1-100 μM bicalutamide (IPR Pharmaceutical), 0.3-30 μM cisplatin (APP Pharmaceutical), 3-300 nM NVP-BEZ235 (Chemdea), 10-1000 nM 17-DMAG (ChemieTek), and 0.1-10 μM dasatinib (LC Laboratories). Viability was determined from measuring fluorescent intensity after metabolic reduction of alamarBlue in the presence/absence of the drug after 72 hours. Viability assays were performed in triplicate, and replicates were normalized to untreated wells. […] For analysis of cell-line drug assays, data generated from the different cell lines representative of TNBC subtypes were compared using the nonparametric Mann-Whitney U test. All analyses and graphic representations were performed using Prism software (version 4.0c; GraphPad Software), and values are represented as the mean±SEM.

Experiment [7] relates to basal-like (BL1 and BL2) TNBC cell lines. The experiment is described as above. Type of experiment: cell-based, human. The settings on record: read-out: average IC50. Here is the method: as §2
A further experiment concerns TNBC cell lines. Briefly: Cell proliferation/viability assay (alamarBlue), panel of TNBC cell lines (Example 1). The experiment is classed as cell-based, human. The conditions noted are these: TNBC cell lines with activated PI3K/AKT signaling due to PIK3CA mutations or PTEN deficiency. Here is the method: as §1
For experiment [8], the system named is SUM185PE, CAL-148, CAL-51 and SUM159PT xenograft tumors. Briefly: Xenograft tumor studies (Example 1), PIK3CA-mutant lines. Type of experiment: in vivo, mice. The settings on record: NVP-BEZ235 per oral 50 mg/kg/d, approximately 3 weeks.
Description: Xenograft tumor studies. Five-week-old female athymic nude-Foxnlnu mice (Harlan Sprague-Dawley) were injected (s.c.) with either approximately 5×10^6 (CAL-51, HCC1806, MDA-MB-468, and SUM185PE) or approximately 10×10^6 (CAL-148 and SUM159PT) cells suspended in medium (200 μl) into each flank using a 22-gauge needle. […] Once tumors reached a volume of 25-50 mm^3, mice were randomly allocated to treatment or vehicle arms. Treatments included bicalutamide per oral (100 mg/kg/d), cisplatin i.p. (8 mg/kg/wk), or NVP-BEZ235 per oral (50 mg/kg/d) in 1:9 N-methylpyrolidone: PEG300. Tumor diameters were serially measured at the indicated times with digital calipers, and tumor volumes were calculated as width^2×length/2. Data points reflect the means and SEM for 16 tumors per treatment.
Experiment [9] deals with HCC1806 and MDA-MB-468 xenograft tumors. The experiment is described as follows: Xenograft tumor studies (Example 1), basal-like. The experiment is classed as in vivo, mice. The settings on record: cisplatin i.p. 8 mg/kg/wk, approximately 3 weeks, relative to vehicle control; P<0.0001. Here is the method:
Xenograft tumor studies. Five-week-old female athymic nude-Foxnlnu mice (Harlan Sprague-Dawley) were injected (s.c.) with either approximately 5×10^6 (CAL-51, HCC1806, MDA-MB-468, and SUM185PE) or approximately 10×10^6 (CAL-148 and SUM159PT) cells suspended in medium (200 μl) into each flank using a 22-gauge needle. The protocols describing the process of xenograft tumor formation in athymic mice were reviewed and approved by the Vanderbilt Institutional Review Board. Once tumors reached a volume of 25-50 mm^3, mice were randomly allocated to treatment or vehicle arms. Treatments included bicalutamide per oral (100 mg/kg/d), cisplatin i.p. (8 mg/kg/wk), or NVP-BEZ235 per oral (50 mg/kg/d) in 1:9 N-methylpyrolidone: PEG300. Tumor diameters were serially measured at the indicated times with digital calipers, and tumor volumes were calculated as width^2×length/2. Data points reflect the means and SEM for 16 tumors per treatment.

Experiment [10] concerns heterogeneous TNBC patient population. The conditions noted are these: neoadjuvant, single agent; cited from earlier work.

Where two headings read alike, the source gives them in different places.

As to `CS(=O)(=O)N1CCN(Cc2cc3nc(-c4cccc5[nH]ncc45)nc(N4CCOCC4)c3s2)CC1` [GDC-0941], in experiment [1], the “viability, single agent” value is recorded as “displayed efficacy”. In addition, in experiment [2], the “activated AKT” value was “decreased activated AKT”. Further, the “caspase 3/7 activation” value in experiment [3] is reported as “caused caspase activation”. In the experiment with MDA-MB-453 cells, the “sub-G1 fraction” value is on record as “higher sub-G1 fraction”. The “cell aggregate size and viability” value in experiment [4] is “decreased cell aggregate size and viability”.
Take `Cc1c(CN2CCN(C(=O)[C@H](C)O)CC2)sc2c(N3CCOCC3)nc(-c3cnc(N)nc3)nc12` [GDC-0980]: the “viability, single agent” value in [1] is recorded as “displayed efficacy”. Also, in experiment [2], the “activated AKT” value is on record as “decreased activated AKT”. Moreover, the AR levels result in experiment [2] (alone) is reported as “decreased AR levels”. Besides, in experiment [2] (compared with GDC-0941), the “mTOR activity as measured by levels of phosphorylated S6” value is “more effective at decreasing mTOR activity”. In addition, in [3], the “caspase 3/7 activation” value was “caused caspase activation”. The “sub-G1 fraction” value with MDA-MB-453 cells is given as “higher sub-G1 fraction”. The “cell aggregate size and viability” value in [4] was “decreased cell aggregate size and viability”. The tumor growth entry in [5] is given as “significantly decreased tumor growth”.
For the compound `Cn1c(=O)n(-c2ccc(C(C)(C)C#N)cc2)c2c3cc(-c4cnc5ccccc5c4)ccc3ncc21` [NVP-BEZ235], the IC50 (as a rule, the concentration needed to halve the response being measured) was found to be 44 nM in experiment [6]; 0.037 µM in the experiment with LAR TNBC cell lines (Homo sapiens, LAR cell lines); 116 nM in experiment [7] (72 hours); 201 nM in [7] (Homo sapiens, 72 h). Further, in the experiment with TNBC cell lines, the “sensitivity (viability)” value is “highly sensitive”. Besides, in [8], the xenograft tumor response result is “partial response or complete”. Besides, in [5], the tumor growth entry is on record as “significantly decreased tumor growth”.
The compound `N.N.[Cl][Pt][Cl]` [cisplatin] gave an IC50 in the experiment with LAR TNBC cell lines (LAR lines) of 15 µM. Besides, the xenograft tumor growth entry in experiment [9] is “significantly growth inhibited”. Further, the pCR in experiment [10] is on record as 21%.
